Consider four compounds from patent publication US12570638B2, “Fused imidazole derivatives as AHR antagonists” (Sail Biomedicines, Inc., priority 2020, dated 2026).

For orientation: solubility means the concentration that dissolves in the medium under given conditions. As usually defined, the IC50 is the concentration that gives 50% inhibition.

Series [1] in a line: Solubility Determination Assay (PBS, LC-MS/MS). It counts as physicochemical. The conditions noted are these: aqueous buffer, kinetic from dmso stock. The procedure: The stock solutions of test compounds and control compound progesterone were prepared in DMSO at the concentrations of 10 mM. 15 μL of stock solution (10 mM) of each sample was placed in order into their proper 96-well rack. 485 μL of PBS pH 1.6 and pH 7.4 were added into each vial of the cap-less Solubility Sample plate. The assay was performed in singlet. One stir stick was added to each vial and then the vial was sealed using a molded PTFE/Silicone plug. […] After completion of the 2 hours, plugs were removed and the stir sticks were removed using a big magnet. The samples from the Solubility Sample plate were transferred into the filter plate. Using the Vacuum Manifold, all the samples were filtered. An aliquot of 5 μL was taken from the filtrate followed by addition of 495 μL of a mixture of H2O and acetonitrile containing internal standard (1:1). A certain proportion of ultrapure water was used to dilute the diluent according to the peak shape. The dilution factor was changed according to the solubility values and the LC-MS signal response.
From the 10 mM DMSO STD plate, 6 μL was transferred into the remaining empty plate, and then 194 μL of DMSO were added to that plate to have a STD concentration of 300 μM. From the 300 μM DMSO STD plate, 5 μL were transferred into the remaining empty plate, and then 495 μL of a mixture of H2O and acetonitrile containing internal standard (1:1) were added to that plate to have a final STD concentration of 3 μM. A certain proportion of ultrapure water was used to dilute the diluent according to the peak shape. The concentrations of the standard samples were changed according to the LC-MS signal response.
The plate was placed into the well plate autosampler. The samples were evaluated by LC-MS/MS analysis.
All calculations were carried out using Microsoft Excel.
The filtrate was analyzed and quantified against a standard of known concentration using LC coupled with mass spectral peak identification and quantitation. Solubility values of the test compound and control compound were calculated as follows: […]
Any value of the compounds that was not within the specified limits was rejected and the experiment was repeated.
“+++” indicates a solubility value equal to or greater than 10 μM, “++” indicates a solubility value between 1 and 10 μM, and “+” indicates a solubility value less than 1 μM.

The nature of series [2]: Liver Microsome Stability Assay, human. It is filed as in vitro ADME. The note with it: human liver microsomes, with NADPH, 1 μM compound, read-out: Human liver microsome clearance. The procedure:
The master solution was prepared according to Table 6.
Two separate experiments were performed as follows.
With Cofactors (NADPH): 25 μL of 10 mM NADPH was added to the incubations. The final concentrations of microsomes and NADPH were 0.5 mg/mL and 1 mM, respectively. The final concentration of microsomes was 0.5 mg/mL. The mixture was pre-warmed at 37° C. for 10 minutes. The reaction was started with the addition of 2.5 μL of 100 μM control compound or test compound solutions. Verapamil was used as positive control in this study. The final concentration of test compound or control compound was 1 μM. The incubation solution was incubated in water batch at 37° C. Aliquots of 25 μL were taken from the reaction solution at 0.5, 5, 15, 30 and 60 minutes. The reaction was stopped by the addition of 5 volumes of cold acetonitrile with IS (200 nM caffeine and 100 nM tolbutamide). Samples were centrifuged at 3, 220 g for 40 minutes. Aliquot of 100 μL of the supernatant was mixed with 100 μL of ultra-pure H2O and then used for LC-MS/MS analysis.
Data Analysis: All calculations were carried out using Microsoft Excel. Peak areas were determined from extracted ion chromatograms. The slope value, k, was determined by linear regression of the natural logarithm of the remaining percentage of the parent drug vs. incubation time curve.
The in vitro half-life (in vitro t1/2) was determined from the slope value: in vitro t1/2=−([…]/k)
Conversion of the in vitro t1/2 (min) into the in vitro intrinsic clearance (in vitro CLint, in μL/min/mg protein) was done using the following equation (mean of duplicate determinations):
The calculations of Scaled-up CLint (mL/min/kg), Predicted CLH (mL/min/kg) and EH were done using the following equation: Scaled-up CLint=(0.693/t1/2)×(1/(microsomal protein concentration(0.5 mg/mL)))×Scaling Factors; Predicted CLH=(QH×Scaled-up CLint×fub)/(QH+Scaled-up CLint×fub); EH=Predicted CLH/QH • where QH is the hepatic blood flow (mL/min/kg) (Table 7), • fub is the fraction of unbound drug in plasma which is assumed to be 1. […]
On the technique in general: Liver microsomes are a subcellular fraction often used to study metabolism.

In series [3] the target is T1, AHR (Homo sapiens, UniProt P35869).
T1 construct: other cell line with a DRE-luciferase reporter stably transfected; endogenous in cells; host or cells: Human HepG2 liver carcinoma AhR-Lucia reporter cells
T1 sequence (P35869 11-848): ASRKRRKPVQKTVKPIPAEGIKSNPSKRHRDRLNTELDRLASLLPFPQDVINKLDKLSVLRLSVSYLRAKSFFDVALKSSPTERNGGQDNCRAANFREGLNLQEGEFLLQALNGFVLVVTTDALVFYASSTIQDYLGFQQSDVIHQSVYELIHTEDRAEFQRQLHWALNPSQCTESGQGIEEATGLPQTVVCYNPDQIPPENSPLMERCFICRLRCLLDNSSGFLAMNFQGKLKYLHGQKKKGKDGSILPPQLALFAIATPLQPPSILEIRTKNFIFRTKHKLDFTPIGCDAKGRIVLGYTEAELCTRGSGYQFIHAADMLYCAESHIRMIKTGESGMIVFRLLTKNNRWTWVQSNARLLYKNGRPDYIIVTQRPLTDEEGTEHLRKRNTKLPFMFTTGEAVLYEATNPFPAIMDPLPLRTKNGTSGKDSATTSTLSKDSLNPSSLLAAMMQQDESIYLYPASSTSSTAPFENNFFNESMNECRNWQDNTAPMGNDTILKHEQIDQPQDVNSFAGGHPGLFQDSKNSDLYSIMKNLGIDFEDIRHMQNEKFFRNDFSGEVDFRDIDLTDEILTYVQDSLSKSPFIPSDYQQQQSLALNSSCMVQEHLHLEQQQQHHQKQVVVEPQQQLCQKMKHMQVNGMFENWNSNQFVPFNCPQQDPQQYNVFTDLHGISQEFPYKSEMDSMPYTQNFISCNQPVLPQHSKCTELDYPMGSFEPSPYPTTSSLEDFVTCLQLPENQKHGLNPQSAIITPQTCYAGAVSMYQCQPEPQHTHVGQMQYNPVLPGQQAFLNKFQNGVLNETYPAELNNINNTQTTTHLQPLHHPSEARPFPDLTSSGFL
Description: DRE-Luciferase Reporter Assay (HepG2 AhR-Lucia reporter cells). It counts as cell-based. The conditions noted are these: luciferase activity with AHR activating ligand at EC50, read-out: HepG2-Luc IC50. An excerpt:
AHR binds to Dioxin Responsive Elements (DRE) upstream of genes that it activates. One measure of AHR activity is activation of a reporter gene, such as luciferase, downstream of one or multiple DRE elements. Luciferase activity will reflect activation and inhibition of AHR in the cells expressing his reporter. 20000 Human HepG2 liver carcinoma—AhR-Lucia reporter cells or Human HT29 colon adenocarcinoma—AhR reporter cells or other cell line with a DRE-luciferase reporter stably transfected were plated in Eagle's Minimal Essential Medium, 10% heat-inactivated FBS, 1× non-essential amino acids Pen-Strep (10,000 U/mL) and Normocin (100 ug/mL) in plates (96-well, 384-well or other plates) and incubated overnight at 37° C. in a CO2 incubator and treated with and without AhR antagonists at a log dilution starting at 100 uM.
After 1 hr that cells were plated an AHR activating ligand, such as TCDD, kynurenine, ITE (2-(1H-indole-3-ylcarbonyl)-4-thiazolecarboxylic methyl ester), VAF347, BNF (beta-naphthoflavone), FICZ (6-formylindolo(3,2-b) carbazole) or other AHR ligands at their specific EC50 concentration, were added to the cells with or without AHR antagonist.
Cells were incubated for 24 or 48 hours or another time point and then, supernatant was analyzed for determination of luciferase activity as a read-out of the AHR activation or inhibition. Luciferase was measured with the commercial kit QUANTI-Luc™ assay solution kit from Invivogen following the manufacturer's instructions.
The level of luciferase with only agonist ligand added was the maximum signal while the luciferase with […] was the minimum signal. IC50 values were determined as the concentration which inhibits half of the luciferase activity.

Where [4] appears, read: PBS pH 1.6, 25° C., read-out: Aq. Solubility at pH = 1.6.
Setting [5] is: PBS pH 7.4, 25° C., read-out: Aq. Solubility at pH = 7.4.

In brackets after ≈: the same amount, converted by molar mass. Like-named read-outs stand apart in the source and are kept apart here.

Take `Cn1nccc1C(=O)Nc1ccc2nc(-c3ccccc3C(F)F)[nH]c2c1` [Compound C, N-(2-(2-(difluoromethyl)phenyl)-1H-benzo[d]imidazol-6-yl)-1-methyl-1H-pyrazole-5-carboxamide]: the solubility at 2 h in series [1] (setting [4]) was greater than 10 µM; in series [1] (setting [5]) it was 1 to 10 µM (≈ 0.367 to 3.67 µg/mL). Also, the CLint scaled at 1 μM in series [2] is less than 0.6 L/h/kg. Also, in series [3], the IC50 lay within 0.1 to 0.5 µM.
For the compound `Cc1ccccc1-c1nc2ccc(NC(=O)c3ncnn3C)cc2[nH]1` [G, 1-methyl-N-(2-(o-tolyl)-1H-benzo[d]imidazol-6-yl)-1H-1,2,4-triazole-5-carboxamide], the IC50 in series [3] was 0.1 to 0.5 µM.
For `Cc1ccccc1-c1nc2ccc(NC(=O)c3ccnn3C)cc2[nH]1` [B, 1-methyl-N-(2-(o-tolyl)-1H-benzo[d]imidazol-6-yl)-1H-pyrazole-5-carboxamide], in series [3], the IC50 lay in the range of 0.1 to 0.5 µM.
With `Cn1ncnc1C(=O)Nc1ccc2nc(-c3ccccc3C(F)F)[nH]c2c1` [D, N-(2-(2-(difluoromethyl)phenyl)-1H-benzo[d]imidazol-6-yl)-1-methyl-1H-1,2,4-triazole-5-carboxamide], the solubility at 2 h is greater than 10 µM in series [1] (setting [4]) and 1 to 10 µM (≈ 0.368 to 3.68 µg/mL) in series [1] (setting [5]). In series [3], the IC50 is less than 0.1 µM.
